Measurements reported in ChEMBL document CHEMBL4052632 (Eur J Med Chem, 2017).

Experiments:
[1] = molecular target: Epidermal growth factor receptor (Homo sapiens) (UniProt P00533); experiment: Inhibition of EGFR (unknown origin) using poly (Glu, Tyr) 4:1 as substrate at 100 uM after 1 hr by ELISA relative to control
[2] = molecular target: Proto-oncogene tyrosine-protein kinase Src (Homo sapiens) (UniProt P12931); experiment: Inhibition of c-Src (unknown origin) using poly (Glu, Tyr) 4:1 as substrate at 100 uM after 1 hr by ELISA relative to control
[3] = molecular target: Hepatocyte growth factor receptor (Homo sapiens) (UniProt P08581); experiment: Inhibition of c-Met (unknown origin) using poly (Glu, Tyr) 4:1 as substrate at 100 uM after 1 hr by ELISA relative to control
[4] = molecular target: Platelet-derived growth factor receptor beta (Homo sapiens) (UniProt P09619); experiment: Inhibition of PDGFRbeta (unknown origin) using poly (Glu, Tyr) 4:1 as substrate at 100 uM after 1 hr by ELISA relative to control
[5] = molecular target: T1, Glycogen synthase kinase-3 beta (Homo sapiens, UniProt P49841); experiment: Inhibition of recombinant human GSK3beta using […] as substrate at 100 uM after 60 mins by spectrophotometric analysis
Target sequence in this assay (P49841 whole entry, looked up): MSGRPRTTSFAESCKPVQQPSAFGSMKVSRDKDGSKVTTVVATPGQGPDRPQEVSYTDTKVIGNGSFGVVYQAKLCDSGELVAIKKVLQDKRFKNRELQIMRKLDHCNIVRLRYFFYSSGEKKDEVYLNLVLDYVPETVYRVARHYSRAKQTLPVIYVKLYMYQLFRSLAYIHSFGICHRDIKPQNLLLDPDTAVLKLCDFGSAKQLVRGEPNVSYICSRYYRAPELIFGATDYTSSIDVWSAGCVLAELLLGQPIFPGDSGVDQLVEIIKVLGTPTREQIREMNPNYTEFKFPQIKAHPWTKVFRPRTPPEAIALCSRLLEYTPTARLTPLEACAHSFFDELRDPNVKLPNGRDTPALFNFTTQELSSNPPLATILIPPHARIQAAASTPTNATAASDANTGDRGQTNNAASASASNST

[6] = molecular target: Serine/threonine-protein kinase Chk1 (Homo sapiens) (UniProt O14757); experiment: Inhibition of recombinant human CHK1 using CREBtide as substrate at 100 uM after 30 mins in presence of ATP relative to control
[7] = molecular target: Mast/stem cell growth factor receptor Kit (Homo sapiens) (UniProt P10721); experiment: Inhibition of c-kit (unknown origin) using poly (Glu, Tyr) 4:1 as substrate at 100 uM after 1 hr by ELISA relative to control
Chain of Mast/stem cell growth factor receptor Kit (Homo sapiens) (P10721 whole entry): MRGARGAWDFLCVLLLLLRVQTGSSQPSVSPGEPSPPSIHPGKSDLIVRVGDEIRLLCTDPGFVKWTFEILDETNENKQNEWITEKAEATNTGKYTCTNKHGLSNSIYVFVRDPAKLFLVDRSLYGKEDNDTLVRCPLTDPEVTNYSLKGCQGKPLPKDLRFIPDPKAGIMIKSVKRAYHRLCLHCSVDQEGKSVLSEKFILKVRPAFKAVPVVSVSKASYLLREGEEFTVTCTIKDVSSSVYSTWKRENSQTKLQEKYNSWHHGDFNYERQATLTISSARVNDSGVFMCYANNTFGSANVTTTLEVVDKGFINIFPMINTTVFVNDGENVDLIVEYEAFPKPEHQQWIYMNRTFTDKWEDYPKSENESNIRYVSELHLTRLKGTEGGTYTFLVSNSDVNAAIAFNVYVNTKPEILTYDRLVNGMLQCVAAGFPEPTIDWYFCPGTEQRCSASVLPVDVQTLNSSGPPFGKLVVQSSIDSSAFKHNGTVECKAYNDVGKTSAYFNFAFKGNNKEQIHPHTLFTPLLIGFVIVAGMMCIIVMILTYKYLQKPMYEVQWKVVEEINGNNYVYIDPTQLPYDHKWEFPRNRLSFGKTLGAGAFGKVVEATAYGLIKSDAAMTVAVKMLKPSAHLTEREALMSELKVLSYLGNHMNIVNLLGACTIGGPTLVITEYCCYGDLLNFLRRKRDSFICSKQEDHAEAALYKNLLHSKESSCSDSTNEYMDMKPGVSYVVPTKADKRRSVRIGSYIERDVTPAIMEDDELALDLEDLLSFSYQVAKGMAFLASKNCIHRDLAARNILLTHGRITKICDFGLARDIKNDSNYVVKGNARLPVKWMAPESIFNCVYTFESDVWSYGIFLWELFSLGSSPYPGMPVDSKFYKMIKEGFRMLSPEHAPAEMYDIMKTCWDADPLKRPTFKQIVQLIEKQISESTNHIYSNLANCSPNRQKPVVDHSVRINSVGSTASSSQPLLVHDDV

[8] = molecular target: T1, Glycogen synthase kinase-3 beta; experiment: biochemical
Target sequence in this assay (P49841 whole entry): as the sequence (P49841 whole entry, looked up) above
Description: Inhibition of recombinant N-terminal His6-tagged human GSK3beta H350L mutant expressed in baculovirus infected Sf21 insect cells using polypeptide GS-2 as substrate after 30 mins in presence of ATP by kinase-glo luminescence assay

[9] = system: Mus musculus; experiment: Toxicity in nude BALB/c mouse xenografted with human A2780 cells assessed as body weight loss at 30 mg/kg, ip administered once every 2 days for 14 consecutive days relative to control; format: organism-based; conditions: in vivo, 48 h
[10] = molecular target: Mitogen-activated protein kinase 13 (Homo sapiens) (UniProt O15264); experiment: Inhibition of recombinant human SAPK4 using Ulight-CFFKNIVTPRTPPPSQGK-amide as substrate at 100 uM after 15 mins in presence of ATP relative to control
[11] = species: Homo sapiens; experiment: Inhibition of human PKA at 100 uM in presence of ATP relative to control
[12] = molecular target: Vascular endothelial growth factor receptor 2 (Homo sapiens) (UniProt P35968); experiment: Inhibition of KDR (unknown origin) using poly (Glu, Tyr) 4:1 as substrate at 100 uM after 1 hr by ELISA relative to control
[13] = molecular target: Fibroblast growth factor receptor 1 (Homo sapiens) (UniProt P11362); experiment: Inhibition of FGFR1 (unknown origin) using poly (Glu, Tyr) 4:1 as substrate at 100 uM after 1 hr by ELISA relative to control
[14] = molecular target: 3-phosphoinositide-dependent protein kinase 1 (Homo sapiens) (UniProt O15530); experiment: Inhibition of recombinant human PDK1 using Ulight-FLGFTYVAP as substrate at 100 uM after 90 mins in presence of ATP relative to control
Chain of 3-phosphoinositide-dependent protein kinase 1 (Homo sapiens) (O15530 whole entry): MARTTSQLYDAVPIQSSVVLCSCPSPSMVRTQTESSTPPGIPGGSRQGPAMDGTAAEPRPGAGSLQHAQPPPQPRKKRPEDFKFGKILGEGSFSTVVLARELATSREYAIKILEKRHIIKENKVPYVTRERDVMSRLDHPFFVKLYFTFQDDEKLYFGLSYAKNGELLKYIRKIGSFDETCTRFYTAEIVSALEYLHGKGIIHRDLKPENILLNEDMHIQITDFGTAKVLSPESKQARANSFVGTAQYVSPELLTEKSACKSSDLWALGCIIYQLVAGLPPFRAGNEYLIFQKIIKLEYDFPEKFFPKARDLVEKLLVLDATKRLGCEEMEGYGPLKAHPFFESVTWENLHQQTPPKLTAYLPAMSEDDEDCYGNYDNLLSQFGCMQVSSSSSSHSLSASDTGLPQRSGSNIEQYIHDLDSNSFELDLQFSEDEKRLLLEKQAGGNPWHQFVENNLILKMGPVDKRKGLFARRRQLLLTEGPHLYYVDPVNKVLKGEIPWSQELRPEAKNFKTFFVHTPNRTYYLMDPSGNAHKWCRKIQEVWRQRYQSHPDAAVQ

[15] = molecular target: Mitogen-activated protein kinase 12 (Homo sapiens) (UniProt P53778); experiment: Inhibition of full length recombinant human SAPK3 at 100 uM in presence of ATP relative to control
[16] = Toxicity in nude BALB/c mouse xenografted with human A2780 cells assessed as body weight loss at 50 mg/kg, ip administered once every 2 days for 14 consecutive days relative to control; format: organism-based; conditions: in vivo, 48 h
[17] = cells; conditions: Homo sapiens, OVCA433, 48 h
Description: Antiproliferative activity against human OVCA433 cells measured after 48 hrs by MTT assay

[18] = molecular target: Vascular endothelial growth factor receptor 1 (Homo sapiens) (UniProt P17948); experiment: Inhibition of VEGFR-1 (unknown origin) using poly (Glu, Tyr) 4:1 as substrate at 100 uM after 1 hr by ELISA relative to control
Chain of Vascular endothelial growth factor receptor 1 (Homo sapiens) (P17948 whole entry): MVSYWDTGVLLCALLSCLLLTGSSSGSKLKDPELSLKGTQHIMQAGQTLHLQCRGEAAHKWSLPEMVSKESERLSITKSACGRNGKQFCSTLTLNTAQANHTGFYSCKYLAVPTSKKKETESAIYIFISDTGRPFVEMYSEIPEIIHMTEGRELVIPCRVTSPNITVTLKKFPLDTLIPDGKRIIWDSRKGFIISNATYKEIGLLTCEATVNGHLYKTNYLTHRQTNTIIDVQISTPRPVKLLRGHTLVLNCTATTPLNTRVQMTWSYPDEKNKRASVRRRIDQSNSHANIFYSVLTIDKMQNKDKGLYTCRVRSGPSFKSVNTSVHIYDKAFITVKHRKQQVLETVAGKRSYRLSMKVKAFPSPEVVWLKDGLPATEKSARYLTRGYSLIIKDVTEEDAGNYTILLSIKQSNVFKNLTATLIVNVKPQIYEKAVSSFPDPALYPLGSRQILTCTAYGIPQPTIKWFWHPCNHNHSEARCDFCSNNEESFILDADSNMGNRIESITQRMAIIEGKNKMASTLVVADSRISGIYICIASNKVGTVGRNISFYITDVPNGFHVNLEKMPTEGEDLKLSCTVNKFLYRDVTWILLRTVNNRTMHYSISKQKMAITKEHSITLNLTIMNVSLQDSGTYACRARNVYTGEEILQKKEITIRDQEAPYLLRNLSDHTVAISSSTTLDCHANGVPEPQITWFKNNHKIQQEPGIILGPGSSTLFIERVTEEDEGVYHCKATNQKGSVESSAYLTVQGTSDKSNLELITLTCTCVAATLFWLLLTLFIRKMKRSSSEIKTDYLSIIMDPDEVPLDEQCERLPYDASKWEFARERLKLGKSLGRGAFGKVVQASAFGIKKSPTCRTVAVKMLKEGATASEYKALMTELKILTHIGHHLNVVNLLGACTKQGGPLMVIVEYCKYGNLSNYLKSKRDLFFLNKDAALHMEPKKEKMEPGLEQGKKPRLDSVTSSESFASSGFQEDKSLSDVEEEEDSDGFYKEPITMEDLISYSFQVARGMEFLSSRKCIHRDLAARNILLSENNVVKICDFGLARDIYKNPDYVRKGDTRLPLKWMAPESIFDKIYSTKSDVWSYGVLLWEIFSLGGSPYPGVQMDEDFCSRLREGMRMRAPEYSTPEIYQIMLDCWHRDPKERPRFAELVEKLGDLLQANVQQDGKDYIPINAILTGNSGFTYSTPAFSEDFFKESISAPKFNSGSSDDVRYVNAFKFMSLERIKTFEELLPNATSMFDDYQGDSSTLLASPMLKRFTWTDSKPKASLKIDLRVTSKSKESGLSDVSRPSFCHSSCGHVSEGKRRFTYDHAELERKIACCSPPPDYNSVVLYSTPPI

[19] = molecular target: Receptor tyrosine-protein kinase erbB-4 (Homo sapiens) (UniProt Q15303); experiment: Inhibition of ErbB4 (unknown origin) using poly (Glu, Tyr) 4:1 as substrate at 100 uM after 1 hr by ELISA relative to control
[20] = molecular target: Cyclin-dependent kinase 2/cyclin E1 (Homo sapiens) (UniProt P24864+P24941); experiment: Inhibition of recombinant human CDK2/CyclinE using Ulight-CFFKNIVTPRTPPPSQGK-amide as substrate at 100 uM after 30 mins in presence of ATP relative to control; format: protein-complex assay
[21] = molecular target: 5'-AMP-activated protein kinase catalytic subunit alpha-1 (Homo sapiens) (UniProt Q13131); experiment: Inhibition of full length recombinant human AMPKalpha1 using AMARAASAAALARRR as substrate at 100 uM after 40 mins in presence of ATP relative to control
Chain of 5'-AMP-activated protein kinase catalytic subunit alpha-1 (Homo sapiens) (Q13131 whole entry, looked up): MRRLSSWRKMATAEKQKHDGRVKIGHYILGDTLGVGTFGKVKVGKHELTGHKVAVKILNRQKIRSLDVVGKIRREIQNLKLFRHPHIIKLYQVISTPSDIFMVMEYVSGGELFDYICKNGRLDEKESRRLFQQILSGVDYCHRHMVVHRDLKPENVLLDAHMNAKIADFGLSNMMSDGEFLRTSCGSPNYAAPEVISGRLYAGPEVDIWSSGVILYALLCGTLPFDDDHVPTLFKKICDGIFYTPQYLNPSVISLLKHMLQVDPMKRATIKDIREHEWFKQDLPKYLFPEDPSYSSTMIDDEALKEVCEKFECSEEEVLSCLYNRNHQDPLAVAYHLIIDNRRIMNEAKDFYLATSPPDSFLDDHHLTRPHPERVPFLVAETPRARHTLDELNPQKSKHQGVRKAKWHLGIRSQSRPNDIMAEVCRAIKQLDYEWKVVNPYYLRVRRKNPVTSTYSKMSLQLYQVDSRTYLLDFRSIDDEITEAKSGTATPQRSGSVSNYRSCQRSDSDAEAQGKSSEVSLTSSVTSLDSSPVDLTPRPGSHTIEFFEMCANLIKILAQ

[22] = species: Homo sapiens; experiment: Inhibition of recombinant human CK2 using Ulight-IkappaB-alpha as substrate at 100 uM after 60 mins in presence of ATP relative to control
[23] = system: A2780; experiment: Induction of apoptosis in human A2780 cells after 24 hrs by annexin V/propidium iodide staining based flow cytometry; format: functional, cell-based
[24] = molecular target: Cyclin-dependent kinase 1/cyclin B1 (Homo sapiens) (UniProt P06493+P14635); experiment: Inhibition of recombinant human CDK1/CyclinB using Ulight-CFFKNIVTPRTPPPSQGK-amide as substrate at 100 uM after 15 mins in presence of ATP relative to control; format: protein-complex assay
[25] = molecular target: Receptor tyrosine-protein kinase erbB-2 (Homo sapiens) (UniProt P04626); experiment: Inhibition of ErbB2 (unknown origin) using poly (Glu, Tyr) 4:1 as substrate at 100 uM after 1 hr by ELISA relative to control
[26] = molecular target: Ephrin type-A receptor 2 (Homo sapiens) (UniProt P29317); experiment: Inhibition of EPH-A2 (unknown origin) using poly (Glu, Tyr) 4:1 as substrate at 100 uM after 1 hr by ELISA relative to control
[27] = system: A2780; experiment: Cell cycle arrest in human A2780 cells assessed as decrease in G2/M phase after 48 hrs by propidium iodide staining based flow cytometry; format: functional
[28] = molecular target: Platelet-derived growth factor receptor alpha (Homo sapiens) (UniProt P16234); experiment: Inhibition of PDGFRalpha (unknown origin) using poly (Glu, Tyr) 4:1 as substrate at 100 uM after 1 hr by ELISA relative to control
Chain of Platelet-derived growth factor receptor alpha (Homo sapiens) (P16234 whole entry): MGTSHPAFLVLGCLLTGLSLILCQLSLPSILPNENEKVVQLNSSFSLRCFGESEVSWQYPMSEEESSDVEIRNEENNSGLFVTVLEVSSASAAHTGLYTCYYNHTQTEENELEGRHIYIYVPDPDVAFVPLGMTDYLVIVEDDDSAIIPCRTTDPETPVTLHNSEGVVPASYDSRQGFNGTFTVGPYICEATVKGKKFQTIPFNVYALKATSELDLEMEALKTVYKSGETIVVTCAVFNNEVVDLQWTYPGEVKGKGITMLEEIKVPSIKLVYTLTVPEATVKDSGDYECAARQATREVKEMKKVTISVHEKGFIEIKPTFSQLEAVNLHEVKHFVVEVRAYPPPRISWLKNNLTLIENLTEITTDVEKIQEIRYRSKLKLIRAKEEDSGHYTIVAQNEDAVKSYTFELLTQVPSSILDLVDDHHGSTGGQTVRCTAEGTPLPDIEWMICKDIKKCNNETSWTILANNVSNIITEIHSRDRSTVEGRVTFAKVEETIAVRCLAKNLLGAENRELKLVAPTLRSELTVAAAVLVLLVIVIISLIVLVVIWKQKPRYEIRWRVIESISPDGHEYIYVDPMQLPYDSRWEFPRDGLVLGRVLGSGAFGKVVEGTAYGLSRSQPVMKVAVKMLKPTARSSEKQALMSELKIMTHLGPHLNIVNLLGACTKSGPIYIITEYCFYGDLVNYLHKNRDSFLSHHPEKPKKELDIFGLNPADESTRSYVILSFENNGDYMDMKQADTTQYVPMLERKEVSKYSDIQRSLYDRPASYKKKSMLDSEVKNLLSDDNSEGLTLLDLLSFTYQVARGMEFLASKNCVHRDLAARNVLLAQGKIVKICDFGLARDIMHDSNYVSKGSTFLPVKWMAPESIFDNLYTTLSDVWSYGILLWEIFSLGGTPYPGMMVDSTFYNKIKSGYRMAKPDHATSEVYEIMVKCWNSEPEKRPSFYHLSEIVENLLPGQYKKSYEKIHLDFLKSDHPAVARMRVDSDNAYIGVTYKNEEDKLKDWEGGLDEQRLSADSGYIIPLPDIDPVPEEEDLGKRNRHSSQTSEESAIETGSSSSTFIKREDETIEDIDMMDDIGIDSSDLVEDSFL

[29] = molecular target: RAC-alpha serine/threonine-protein kinase (Homo sapiens) (UniProt P31749); experiment: Inhibition of recombinant human PKBalpha using CREBtide (CKRREILSRRPSYRK) as substrate at 100 uM after 60 mins in presence of ATP relative to control
[30] = system: A2780; experiment: Cell cycle arrest in human A2780 cells assessed as accumulation at G0/G1 phase at 5 to 15 uM after 48 hrs by propidium iodide staining based flow cytometry ( Rvb = 60%); format: functional

CCCCCCCCCCCCCCC(=O)NC1CCN(C(=O)C2Sc3ccccc3N(CC)C2=O)CC1 (stereo not given)
inhibition [1]: 0% | inhibition [2]: 3.2% | inhibition [3]: -4.8% | inhibition [4]: 19.6% | inhibition [5]: 94.3% | inhibition [6]: -8% | inhibition [7]: 0% | IC50 [8]: 22.4 µM | Activity [9]: Non-Toxic | inhibition [10]: 16% | inhibition [11]: 36% | inhibition [12]: 22.5% | inhibition [13]: 9.3% | inhibition [14]: 0% | inhibition [15]: 19% | Activity [16]: Non-Toxic | IC50 [17]: 8.3 µM | inhibition [18]: 6.8% | inhibition [19]: 34.3% | inhibition [20]: 39% | inhibition [21]: 34% | inhibition [22]: 0% | Activity [23]: Dose-dependent effect | inhibition [24]: 7% | inhibition [25]: 0% | inhibition [26]: 13% | Activity [27]: Dose-dependent effect | inhibition [28]: 0% | inhibition [29]: 52% | Activity [30]: 77.1%
